Source: patent US20250042925A1, “Improved Compositions and Methods for Targeting Mitochondria in Cancer Cells” (The Medical College of Wisconsin, Inc., priority 2021, published 2025)

Assays:
diabetic patients = conditions: cited from earlier work
[1] = test system: KPC1242, Panc-1, AsPC-1, HCT-116, MDA-MB-231, OVCAR-4, OVCAR-8 cancer cell lines; test: Cell growth (IncuCyte confluence) in cancer cell lines; format: cell-based, murine, human; conditions: increasing concentrations 0.1 μM-10 μM, each of the cancer cells
Excerpt: (§1) Murine pancreatic cancer cells KPC1242 (David Tuveson, Cold Spring Harbor), human pancreatic cancer cells, Panc-1 (ATCC: CRL-1469), human breast cancer cells MDA-MB-231 (ATCC: CRM-HTB-26), and human pancreatic stellate cells HPSC (Rosa F. Hwang, MD Anderson cancer) were all cultured in DMEM (Gibco ThermoFisher Scientific, Waltham, MA, Cat #11965084) containing 10% v/v fetal bovine serum (Omega Scientific, Inc., Tarzana, CA, Cat #FB-12). Human pancreatic cancer cells AsPC-1 (ATCC: CRL-1682), human ovarian cancer cells OVCAR-8 (NIH: CVCL-1629), and human ovarian cancer cells OVCAR-4 (NIH: CVCL-1627) were all cultured in DMEM (Gibco, Cat #22400089) containing 10% v/v fetal bovine serum (Omega Scientific). Human colon cancer cells HCT-116 (ATCC: CCL-247) were cultured in McCoy's 5A Modified Medium (Gibco, Cat #16600082) containing 10% v/v fetal bovine serum (Omega Scientific). Human pancreatic duct epithelial cells HPNE (ATCC: CRL-4023) were cultured in DMEM and 200 mM L-Glutamine and 7.5% w/v NaCO3 further supplemented with 15% v/v fetal bovine serum, M3-Base A (Incell, San Antonio, TX), 1M D-Glucose (Gibco Cat #J60067.EQE), 100 μg/mL human EGF (Gibco Cat #PHG0313) and 10 mg/mL puromycin (ThermoFisher, Cat #A1113802).

[2] = test system: HPNE and HPSC non-transformed cells; test: Cell growth (confluence) of normal non-transformed cells; format: cell-based, human
Method: To test the off-target effects of the refined MMe analogs on normal non-transformed cells, the growth of HPNE cells (FIGS. 11A, 11D, and 11G), used as a surrogate for normal pancreatic ductal epithelium, or normal stromal HPSC cells (FIGS. 11B, 11E, and 11H) were measured in increasing concentrations of MMe, pCF3-MMe, or mCF3-MMe and compared to the vehicle control.
as §1

[3] = test system: Panc-1 human pancreatic cancer cells; test: Cell growth (IncuCyte confluence) in Panc-1 cells
Excerpt: Values are mean±SD, n=4, each experiment completed in technical quadruplicate.
To investigate tumor cell selectivity, human pancreatic nestin-expressing cells (HPNE) were used as a surrogate for normal epithelial cells, and human pancreatic stellate cells (HPSC) were studied as a non-transformed stromal cell type. Cells were exposed to escalating concentrations of MMe, pCF3-MMe, mCF3-MMe, and pMeO-MMe (FIGS. 2A-2D) and percent confluency measured as a surrogate for daily proliferation.
Cells were plated to standard 96-well tissue culture plates at 4,000 cells/well. Mitochondria-targeted compounds were diluted in full serum medium and added to wells. Cell confluence was measured using an IncuCyte S3 every 2 hours at 10× magnification. […] Image analyses were conducted using the IncuCyte S3 imaging software system.

## CN(C)C(=N)N=C(N)N [Metformin]
Diabetic patients
  tolerated daily doses: 2-3 grams

## N=C(N)NC(=N)NCCCCCCCCCC[P+](c1cccc(C(F)(F)F)c1)(c1cccc(C(F)(F)F)c1)c1cccc(C(F)(F)F)c1.[Br-] [mCF3-MMe, (10-(3-carbamimidoylguanidino)decyl)tris(3-(trifluoromethyl)phenyl)phosphonium bromide]
[1]
  cell confluency: decreased in a concentration-dependent manner
[2]
  reduction in toxicity to normal cells compared to MMe: ~10 fold
[2]; HPNE, HPSC versus cancer cells
  sensitivity of normal non-transformed cells compared to cancer cells: more than a log less sensitive

## COc1ccc([P+](CCCCCCCCCCNC(=N)NC(=N)N)(c2ccc(OC)cc2)c2ccc(OC)cc2)cc1 [pMeO-MMe]
[3]; human pancreatic cancer cells
  confluence: concentration-dependent decrease in confluence
[3]; in contrast to the fluorinated compound
  efficacy in pancreas cancer cells: significantly lower efficacy
